Experimental data reported in patent US11833162B2, “Macrocyclic derivatives, process for preparing same and pharmaceutical compositions containing same” (LES LABORATOIRES SERVIER, priority 2017, dated 2023).
Counter-ions that a name gives are not always drawn.

Experiments:
Bcl-2 protein = Bcl-2 protein (histag-Bcl-2, UniProtKB P10415) (Homo sapiens, UniProt P10415); test: Inhibition of Bcl-2 by the fluorescence polarisation technique; type: binding; settings: for IC50: fluorescence polarisation, 2 hours incubation, read-out: IC50 (μM) Bcl-2 FP
Chain of Bcl-2 protein (P10415 whole entry): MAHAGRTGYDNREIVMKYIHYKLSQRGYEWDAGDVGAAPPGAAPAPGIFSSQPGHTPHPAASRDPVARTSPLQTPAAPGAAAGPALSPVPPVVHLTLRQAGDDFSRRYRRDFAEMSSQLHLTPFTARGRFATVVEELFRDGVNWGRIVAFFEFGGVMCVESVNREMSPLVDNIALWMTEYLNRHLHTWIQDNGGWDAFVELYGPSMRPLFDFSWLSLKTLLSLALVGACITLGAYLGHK
Experimental: The fluorescence polarisation tests were carried out on microplates (384 wells). The Bcl-2 protein, labelled (histag-Bcl-2 such that Bcl-2 corresponds to the UniProtKB® primary accession number: P10415), at a final concentration of 5×10^−9M, is mixed with a fluorescent peptide (Fluorescein-REIGAQLRRMADDLNAQY), at a final concentration of 1.00×10^−9M in a buffer solution (Hepes 10 mM, NaCl 150 mM, Tween20 0.05%, pH 7.4), in the presence or absence of increasing concentrations of test compounds. After incubation for 2 hours, the fluorescence polarisation is measured.

[1] = test system: RS4; 11 leukaemia tumour line; test: In vitro cytotoxicity, Microculture Tetrazolium Assay (MTT); type: cell-based; settings: 11 cells, 48 hours exposure
Experimental: The cytotoxicity studies were carried out on the RS4; 11 leukaemia tumour line.
The cells are distributed onto microplates and exposed to the test compounds for 48 hours.
The cell viability is then quantified by a colorimetric assay, the Microculture Tetrazolium Assay (Cancer Res., 1987, 47, 939-942).

IC50 (Bcl-2 protein) | Bcl-2 FP, % at given concentration (Bcl-2 protein; @10 μM) | Bcl-2 FP, % at given concentration (Bcl-2 protein; @1.1 μM) | Compound | IC50 ([1]; Homo sapiens, RS4-11, 48 h) | IC50 [1]
0.0023 µM | – | – | Cc1c2cc(n1C)-c1cc(Cl)ccc1C(=O)N1CCc3c(cccc3OCCCc3cc(C#N)cc(c3)N(c3ccc(O)cc3)C2=O)C1 [Example 9, 6-Chloro-14-(4-hydroxyphenyl)-10,11-dimethyl-2,13-dioxo-23-oxa-1,10,14-triazahexacyclo[26.3.1.1˜9,12˜.1˜15,19˜.0˜3,8˜.0˜24,29˜]tetratriaconta-3,5,7,9(34),11.15 (33),16,18,24,26,28-undecaene-17-carbonitrile] | 5.24 nM | –
0.0332 µM | – | – | Cc1c2cc(n1C)-c1cc(Cl)ccc1C(=O)N1Cc3ccccc3C(COc3ccc(C#N)cc3N(c3ccc(O)cc3)C2=O)C1 (centres unmarked) [Example 13, 12-Chloro-5-(4-hydroxyphenyl)-8,9-dimethyl-6,15-dioxo-6,9,22,23-tetrahydro-5H,15H,17H-16,22-methano-7,10-(metheno)tribenzo[b,j,o][1,4,8,13]oxa-triazacyclooctadecine-3-carbonitrile] | 239 nM | –
0.0149 µM | – | – | Cc1c2cc(n1C)-c1cc(Cl)ccc1C(=O)N1Cc3cccc(c3C1)OCCc1c(cnn1C)N(c1ccc(O)cc1)C2=O [Example 24, 11-Chloro-4-(4-hydroxyphenyl)-1,7,8-trimethyl-1,4,22,23-tetrahydro-14H,16H-15,17-methano-6,9-(metheno)dibenzo[b,g]pyrazolo[4,3-o][1,5,10,14]oxatriaza-cyclooctadecine-5,14(8H)-dione] | 106 nM | –
– | 39.2% @10 μM | – | Cc1c2cc(n1C)-c1cc(Cl)ccc1C(=O)N1CCCC(COCCOCCOc3ncc(cn3)N(c3ccc(O)cc3)C2=O)C1 (centres unmarked) [Example 42, 10-Chloro-2-(4-hydroxyphenyl)-5,6-dimethyl-21,24,27-trioxa-2,6,15,29,32-pentaazapentacyclo[26.2.2.1˜4,7˜.1˜15,19˜.0˜8,13˜]tetratriaconta-1(30),4, 7(34),8,10,12,28,31-octaene-3,14-dione] | > 600 nM | –
– | – | 74.55% @1.1 μM | Cc1c2cc(n1C)-c1cc(Cl)ccc1C(=O)N1CCc3c(cccc3OCCn3c(C)ncc(c3=O)N(c3ccc(O)cc3)C2=O)C1 [Example 31, 6-Chloro-14-(4-hydroxyphenyl)-10,11,18-trimethyl-22-oxa-1,10,14,17,19-pentaazahexacyclo[25.3.1.1˜9,12˜.1˜15,19˜.0˜3,8˜.0˜23,28˜]tritriaconta-3,5,7,9(33),11,15,17,23,25,27-decaene-2,13,32-trione] | 1330 nM | –
0.0041 µM | – | – | Cc1c2cc(n1C)-c1cc(Cl)ccc1C(=O)N1Cc3cccc(c3CC1C)OCCCc1c(cc(C#N)n1C)N(c1ccc(O)cc1)C2=O (single isomer, unassigned) [Example 26, (16S or R)-11-Chloro-4-(4-hydroxyphenyl)-1,7,8,16-tetramethyl-5,14-dioxo-4,5,8,16,17,23,24,25-octahydro-1H,14H-15,18-methano-6,9-(metheno)-dibenzo[b,h]pyrrolo[3,2-p][1,6,11,15]oxatriazacycloicosine-2-carbonitrile] | – | 1.66 nM
0.0467 µM | – | – | Cc1c2cc(n1C)-c1cc(Cl)ccc1C(=O)N1CCc3c(cccc3OCCCCOc3ncc(cn3)N(c3ccc(O)cc3)C2=O)C1 [Example 41, 10-Chloro-2-(4-hydroxyphenyl)-5,6-dimethyl-24,29-dioxa-2,6,15,31,34-pentaazahexacyclo[28.2.2.1˜4,7˜.1˜15,19˜.0˜8,13˜.0˜18,23˜]hexatriaconta-1(32),4,7(36),8,10,12,18,20,22,30,33-undecaene-3,14-dione] | 197 nM | –
0.0044 µM | – | – | Cc1c2cc(n1C)-c1cc(Cl)ccc1C(=O)N1CCc3c(cccc3OCCCOc3cccc(c3)N(c3ccc(O)cc3)C2=O)C1 [Example 2, 6-Chloro-14-(4-hydroxyphenyl)-10,11-dimethyl-20,24-dioxa-1,10,14-triazahexacyclo[27.3.1.1˜9,12˜.1˜15,19˜.0˜3,8˜.0˜25,30˜]pentatriaconta-3,5,7,9(35),11,15(34),16,18,25,27,29-undecaene-2,13-dione] | 179 nM | –
0.0693 µM | – | – | Cc1c2cc(n1C)-c1cc(Cl)ccc1C(=O)N1CCc3c(cccc3OCCOCCN(c3ccc(O)cc3)C2=O)C1 [Example 34, 18-chloro-11-(4-hydroxyphenyl)-14,15-dimethyl-6,7,10,11,23,24-hexahydro-9H,21H-1,22-methano-13,16-(metheno)dibenzo[m,s][1,4,7,11,16]dioxatriaza-cycloicosine-12,21(15H)-dione] | 1240 nM | –
0.0064 µM | – | – | Cc1c2cc(n1C)-c1cc(Cl)ccc1C(=O)N1CCc3c(cccc3OCCCCCOc3ncc(cn3)N(c3ccc(O)cc3)C2=O)C1 [Example 40, 10-Chloro-2-(4-hydroxyphenyl)-5,6-dimethyl-24,30-dioxa-2,6,15,32,35-pentaazahexacyclo[29.2.2.1˜4,7˜.1˜15,19˜.0˜8,13˜.0˜8,23˜]heptatriaconta-1(33),4,7(37),8,10,12,18,20,22,31,34-undecuene-3,14-dione] | 29.9 nM | –
0.00497 µM | – | – | Cc1c2cc(n1C)-c1cc(Cl)ccc1C(=O)N1CCc3c(cccc3OCCN(C)CCOc3ncc(cn3)N(c3ccc(O)cc3)C2=O)C1 [Example 44, 10-Chloro-2-(4-hydroxyphenyl)-5,6,27-trimethyl-24,30-dioxa-2,6,15,27,32,35-hexaazahexacyclo[29.2.2.1˜4,7˜.1˜15,19˜.0˜8,13˜.0˜18,23˜]hepta-triaconta-1(33),4,7(37),8,10,12,18,20,22,31,34-undecaene-3,14-dione] | 35.4 nM | –
0.0123 µM | – | – | Cc1c2cc(n1C)-c1cc(F)ccc1C(=O)N1CCc3c(cccc3OCCc3c(cnn3C)N(c3ccc(O)cc3)C2=O)C1 [Example 20, 11-Fluoro-4-(4-hydroxyphenyl)-1,8-trimethyl-1,4,16,17,23,24-hexahydro-14H-15,18-methano-6,9-(metheno)dibenzo[l,r]pyrazolo[3,4-d][1,6,10,15]oxatriazacyclo-nonadecine-5,14(8H)-dione] | 81.2 nM | –
0.0098 µM | – | – | Cc1c(N2C(=O)c3cc(n(C)c3C)-c3cc(Cl)ccc3C(=O)N3CCC(CCOc4cc(O)ccc42)CC3)cc(C#N)n1C [Example 27, 4-[15-Chloro-3-hydroxy-18,19-dimethyl-12,21-dioxo-7,8,9,10,18,21-hexahydro-6H,12H,22H-8,11-ethano-20,17-(metheno)dibenzo[b,j][1,4,8,13]oxatriaza-cyclooctadecin-22-yl]-1,5-dimethyl-1H-pyrrole-2-carbonitrile] | 104 nM | –
0.0102 µM | – | – | Cc1c2cc(n1C)-c1cc(F)ccc1C(=O)N1CCc3c(cccc3OCCOCCOc3ncc(cn3)N(c3ccc(O)cc3)C2=O)C1 [Example 37, 10-Fluoro-2-(4-hydroxyphenyl)-5,6-dimethyl-24,27,30-trioxa-2,6,15,32,35-pentaazahexacyclo[29.2.2.1˜4,7˜.1˜15,19˜.0˜8,13˜.0˜18,23˜]heptatriaconta-1(33),4,7(37),8,10,12,18,20,22,31,34-undecuene-3,14-dione] | 49.6 nM | –
0.0768 µM | – | – | Cc1c2cc(n1C)-c1cc(Cl)ccc1C(=O)N1CCc3c(cccc3OCCCCCCOc3ncc(cn3)N(c3ccc(O)cc3)C2=O)C1 [Example 39, 10-Chloro-2-(4-hydroxyphenyl)-5,6-dimethyl-24,31-dioxa-2,6,15,33,36-pentaazahexacyclo[30.2.2.1˜4,7˜.1˜15,19˜.0˜8,13˜.0˜18,23˜]octatriaconta-1(34),4,7(38),8,10,12,18,20,22,32,35-undecuene-3,14-dione] | 149 nM | –
0.299 µM | – | – | Cc1c2cc(n1C)-c1cc(Cl)ccc1CN1CCc3c(cccc3OCCc3c(cnn3C)N(c3ccc(O)cc3)C2=O)C1 [Example 10, 11-Chloro-4-(4-hydroxyphenyl)-1,7,8-trimethyl-1,4,16,17,23,24-hexahydro-14H-15,18-methano-6,9-(metheno)dibenzo[l,r]pyrazolo[3,4-d]-[1,6,10,15]oxatriazacyclononadecin-5(8H)-one hydrochloride] | > 300 nM | –
0.157 µM | – | – | Cc1c2cc(n1C)-c1cc(Cl)ccc1CN1CCc3c(cccc3OCCCc3c(cnn3C)N(c3ccc(O)cc3)C2=O)C1 [Example 11, 11-Chloro-4-(4-hydroxyphenyl)-1,7,8-trimethyl-4,16,17,23,24,25-hexahydro-1H,14H-15,18-methano-6,9-(metheno)dibenzo[b,h]pyrazolo[4,3-p]-[1,6,11,15]oxatriazacycloicosin-5(8H)-one] | 448 nM | –
– | 34.8% @10 μM | – | Cc1c2cc(n1C)-c1cc(Cl)ccc1C(=O)N1CCC(CC1)COCCOCCOc1ncc(cn1)N(c1ccc(O)cc1)C2=O [Example 43, 6-Chloro-14-(4-hydroxyphenyl)-10,11-dimethyl-19,22,25-trioxa-1,10,14,17,32-pentaazapentacyclo[25.2.2.2˜15,18˜. 1˜9,12˜.0˜3,8˜]tetratriaconta-3,5,7,9(34),11,15,17,32-octaene-2,13-dione] | > 1880 nM | –
0.0055 µM | – | – | Cc1c2cc(n1C)-c1cc(Cl)ccc1C(=O)N1CCc3c(cccc3OCCc3c(cc(C#N)n3C)N(c3ccc(O)cc3)C2=O)C1 [Example 19, 11-Chloro-4-(4-hydroxyphenyl)-1,7,8-trimethyl-5,14-dioxo-1,4,5,8,16,17,23,24-octahydro-14H-15,18-methano-6,9-(metheno)dibenzo[l,r]pyrrolo-[2,3-d][1,6,10,15]oxatriazacyclononadecine-2-carbonitrile] | 10.3 nM | –
